From paper PMC6311682, “Design, Synthesis, and Biological Evaluation of 2-Nitroimidazopyrazin-one/-es with Antitubercular and Antiparasitic Activity” (Journal of Medicinal Chemistry, 2018)
Converted amounts (≈) assume the structure as drawn. “And” between values parts separate entries of the source, which are not always exact repeats. Equal values may be shown once. Read-outs that look alike come from different tables or passages of the source. Marks after values point to notes of the source that are not given here.

Key:
[1] = tested on: HEK293 cells; set-up: method as in Jarrad et al. 2; conditions: ATCC CRL-1573; ref Jarrad et al. 2; read-out: cytotoxicity CC50 HEK 293; cited from earlier work
[2] = tested on: HepG2 cells; set-up: method as in Jarrad et al. 2; conditions: ATCC HB-8065; ref Jarrad et al. 2; read-out: cytotoxicity CC50 HepG2; cited from earlier work
[3] = tested on: L. donovani MHOM/IN/80/DD8 (ATCC50212); test: L. donovani DD8 intracellular (THP-1) amastigote assay; type: cell-based; conditions: Leishmania donovani
[4] = Mammalian cytotoxicity assay (resazurin), HEK293; conditions: human, HEK293 cells
[5] = tested on: C. difficile (630, ATCC BAA-1382); test: Broth microdilution MIC assay, C. difficile; type: cell-based, Clostridium difficile; conditions: 630 ATCC BAA-1382, median MIC; for MIC: Clostridioides difficile, ATCCBAA1382, read-out: antibacterial MIC C. difficile
[6] = Broth microdilution MIC assay, ESKAPE pathogens; type: cell-based; conditions: S. aureus, E. coli, K. pneumoniae, A. baumannii, P. aeruginosa; read-out: antibacterial MIC ESKAPE
[7] = tested on: ESKAPE pathogens S. aureus (ATCC 43300), E. coli (ATCC 25922), K. pneumoniae (ATCC 700603), A. baumannii (ATCC 19606), P. aeruginosa (ATCC 27853); test: Broth microdilution MIC assay, ESKAPE pathogens; type: cell-based
[8] = Mammalian cytotoxicity assay (resazurin), HepG2; conditions: human, HepG2 cells
[9] = Kinetic solubility determination by LC-UV; conditions: room temperature, 1% DMSO
[10] = tested on: C. albicans (ATCC 90028) and C. neoformans (H99, ATCC 208821); test: Broth microdilution MIC assay, fungi; type: cell-based; conditions: for MIC: Candida albicans, read-out: antifungal MIC
[11] = tested on: M. tuberculosis (H37Rv); test: M. tuberculosis H37Rv resazurin reduction microplate MIC assay, hypoxic conditions (0.1% oxygen); type: cell-based, Mycobacterium tuberculosis
[12] = tested on: E. histolytica (HM1:IMSS); test: ATP-bioluminescence cell growth and survival assay, E. histolytica trophozoites; type: cell-based; conditions: Entamoeba histolytica
[13] = tested on: T. b. brucei (strain 427, BS427); test: 384-well resazurin viability assay, T. b. brucei bloodstream parasites; type: cell-based; conditions: Trypanosoma brucei, BS427, n = 2; read-out: antiparasitic IC50 T. b. brucei
[14] = read-out: antiparasitic IC50 L. donovani
[15] = read-out: antiparasitic pIC50 ± SE L. donovani (converted)
[16] = PBS, pH 7.4, Solubility µM (PBS), PBS pH 7.4, 24 h
[17] = water, Solubility µM (H2O), 24 h
[18] = read-out: antiparasitic IC50 E. histolytica
[19] = read-out: antiparasitic pIC50 ± SE E. histolytica (converted)

NC(=O)c1nc([N+](=O)[O-])cn1Cc1ccc(OC(F)(F)F)cc1 [28c]
CC50 [1]: > 100 µM
CC50 [2]: > 100 µM

Cc1[nH]c(=O)c2nc([N+](=O)[O-])cn2c1C [26a, 5,6-Dimethyl-2-nitroimidazo[1,2-a]pyrazin-8(7H)-one]
IC50 [3, 14]: > 80 µM
IC50 [3, 15]: > 79.4 µM
CC50 at 24 h [4]: > 100 µM
antibacterial MIC C. difficile [5]: >64 mg/L
MIC [5]: > 64 mg/L
MIC [6]: > 32 mg/L
antibacterial MIC ESKAPE [7]: >32 µg/mL
CC50 at 24 h [8]: > 100 µM
solubility at 24 h [9, 16]: > 200 µM
solubility at 24 h [9, 17]: > 200 µM
antifungal MIC [10]: >32 mg/L
MIC [10]: > 32 mg/L

CCOC(=O)c1nc([N+](=O)[O-])cn1Cc1ccc(OC(F)(F)F)cc1 [28i]
CC50 [1]: > 100 µM
CC50 [2]: > 100 µM

Cc1cccc(Cn2ccn3cc([N+](=O)[O-])nc3c2=O)c1 [17g, 7-(3-Methylbenzyl)-2-nitroimidazo[1,2-a]pyrazin-8(7H)-one]
M. tuberculosis hypoxia % I ([11]; @ 0.125–8 μg/mL): 70–90% I @ 0.125–8 μg/mL
IC50 [3, 14]: > 20 µM
IC50 [3, 15]: > 20 µM
MIC [6]: > 32 mg/L
antibacterial MIC ESKAPE [7]: >32 µg/mL
IC50 [12, 18]: > 50 µM
IC50 [12, 19]: > 50.1 µM
solubility at 24 h [9, 16]: < 5 µM
solubility at 24 h [9, 17]: < 5 µM

O=C(NO)c1nc([N+](=O)[O-])cn1Cc1ccc(OC(F)(F)F)cc1 [28j]
M. tuberculosis hypoxia % I ([11]; at 32 μg/mL): 60% and 60–75%
CC50 [1]: 36 µM
CC50 [2]: > 100 µM

CC(=O)OCCn1c(-c2ccccc2)cn2cc([N+](=O)[O-])nc2c1=O [24b, 2-(2-Nitro-8-oxo-6-phenylimidazo[1,2-a]pyrazin-7(8H)-yl)ethyl Acetate]
IC50 [3, 14]: > 80 µM
IC50 [3, 15]: > 79.4 µM
CC50 at 24 h [4]: > 100 µM
IC50 [13]: < 1 µM
MIC [5]: 64 mg/L
MIC [6]: > 32 mg/L
antibacterial MIC ESKAPE [7]: >32 µg/mL
CC50 at 24 h [8]: > 100 µM
solubility at 24 h [9, 16]: 187 ± 17.4 µM
solubility at 24 h [9, 17]: 164 ± 7.57 µM
antifungal MIC [10]: >32 mg/L
MIC [10]: > 32 mg/L

Cc1cn2cc([N+](=O)[O-])nc2c(=O)[nH]1 [25a, 6-Methyl-2-nitroimidazo[1,2-a]pyrazin-8(7H)-one]
IC50 [3, 14]: > 80 µM
IC50 [3, 15]: > 79.4 µM
CC50 at 24 h [4]: > 100 µM
antibacterial MIC C. difficile [5]: >64 mg/L
MIC [5]: > 64 mg/L
MIC [6]: > 32 mg/L
antibacterial MIC ESKAPE [7]: >32 µg/mL
CC50 at 24 h [8]: > 100 µM
solubility at 24 h [9, 16]: 183 ± 29.2 µM (≈ 35.5 µg/mL)
solubility at 24 h [9, 17]: 182 ± 18.2 µM (≈ 35.3 µg/mL)
antifungal MIC [10]: >32 mg/L
MIC [10]: > 32 mg/L

Cc1cn2cc([N+](=O)[O-])nc2c(OCCO)n1 [25e, 2-((6-Methyl-2-nitroimidazo[1,2-a]pyrazin-8-yl)oxy)ethan-1-ol]
IC50 [3, 14]: > 80 µM
IC50 [3, 15]: > 79.4 µM
CC50 at 24 h [4]: > 100 µM
antibacterial MIC C. difficile [5]: >64 mg/L
MIC [5]: > 64 mg/L
MIC [6]: > 32 mg/L
antibacterial MIC ESKAPE [7]: >32 µg/mL
CC50 at 24 h [8]: > 100 µM
solubility at 24 h [9, 16]: 193 ± 3.28 µM (≈ 46 µg/mL)
solubility at 24 h [9, 17]: 196 ± 1.45 µM (≈ 46.7 µg/mL)
antifungal MIC [10]: >32 mg/L
MIC [10]: > 32 mg/L

O=C(NCc1cccc(OC(F)(F)F)c1)c1ncc([N+](=O)[O-])[nH]1 [16f]
CC50 [1]: > 100 µM
CC50 [2]: > 100 µM

O=[N+]([O-])c1cn2cc(-c3ccccc3)nc(OCCO)c2n1 [24e, 2-((2-Nitro-6-phenylimidazo[1,2-a]pyrazin-8-yl)oxy)ethan-1-ol]
IC50 [3, 14]: > 80 µM
IC50 [3, 15]: > 79.4 µM
CC50 at 24 h [4]: > 100 µM
antibacterial MIC C. difficile [5]: >64 mg/L
MIC [5]: > 64 mg/L
MIC [6]: 16 to 32 mg/L (≈ 53.3 to 107 µM)
antibacterial MIC ESKAPE [7]: 16-32* μg/mL
CC50 at 24 h [8]: > 100 µM
solubility at 24 h [9, 16]: < 5 µM
solubility at 24 h [9, 17]: < 5 µM
antifungal MIC [10]: >32 mg/L
MIC [10]: > 32 mg/L

O=c1c2nc([N+](=O)[O-])cn2ccn1Cc1cccc(C(F)(F)F)c1 [17h, 2-Nitro-7-(3-(trifluoromethyl)benzyl)imidazo[1,2-a]pyrazin-8(7H)-one]
M. tuberculosis hypoxia % I ([11]; @ 0.06–16 μg/mL): 70–90% I @ 0.06–16 μg/mL
IC50 [3, 14]: > 40 µM
IC50 [3, 15]: > 39.8 µM
MIC [6]: > 32 mg/L
antibacterial MIC ESKAPE [7]: >32 µg/mL
IC50 [12, 18]: > 50 µM
IC50 [12, 19]: > 50.1 µM

Cc1ncc([N+](=O)[O-])n1CCO [metronidazole 1, metronidazole, reference compound]
CC50 at 24 h [4]: > 100 µM
MIC [6]: > 32 mg/L
CC50 [1]: > 100 µM
CC50 at 24 h [8]: > 100 µM
CC50 [2]: > 100 µM
MIC [10]: > 32 mg/L
